The results in this text go back to ChEMBL document CHEMBL1151534, “UK-73,093: A non-peptide neurotensin receptor antagonist” (Bioorg Med Chem Lett, 1992).

The source made the active and inactive calls. The calls are words filed in the database; no cut-off is given here.

In experiment [1] the test system is N1E-115. Briefly: Evaluated for the cyclic [3H]GMP formation in murine N1E-115 neuroblastoma cells in absence of neurotensin at conc. of 32 uM; NS - No significant activity. The experiment is classed as functional, cell-based. Conditions: Mus musculus.
For experiment [2], the system named is N1E-115. Briefly: Evaluated for its antagonistic activity against the NT-stimulated cyclic [3H]GMP formation in murine N1E-115 neuroblastoma cells. The experiment is classed as functional, cell-based, Mus musculus.
Experiment [3] addresses Neurotensin receptor type 1 (Rattus norvegicus, UniProt P20789). Briefly: Inhibitory concentration required for the displacement of [3H]NT from neurotensin receptor in rat.
Experiment [4] deals with Neurotensin receptor (Homo sapiens) (UniProt O95665+P30989). Briefly: Inhibitory concentration required for the displacement of [3H]-NT from neurotensin receptor on human frontal cortex at conc. of 100 uM; NA - No activity. The experiment is classed as tissue-based.
Neurotensin receptor (Homo sapiens), sequence (O95665 whole entry, looked up): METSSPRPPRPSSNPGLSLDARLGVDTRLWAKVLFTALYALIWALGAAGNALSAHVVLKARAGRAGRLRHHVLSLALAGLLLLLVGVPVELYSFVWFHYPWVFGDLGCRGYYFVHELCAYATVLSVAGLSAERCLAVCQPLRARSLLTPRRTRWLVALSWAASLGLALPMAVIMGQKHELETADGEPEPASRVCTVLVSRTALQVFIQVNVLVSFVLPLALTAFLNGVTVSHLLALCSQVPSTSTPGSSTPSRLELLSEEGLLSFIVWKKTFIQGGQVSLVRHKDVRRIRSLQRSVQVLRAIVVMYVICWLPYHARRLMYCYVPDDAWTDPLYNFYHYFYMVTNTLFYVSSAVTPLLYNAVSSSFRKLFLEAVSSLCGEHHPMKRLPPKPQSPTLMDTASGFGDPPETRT
Neurotensin receptor (Homo sapiens), sequence (P30989 whole entry, looked up): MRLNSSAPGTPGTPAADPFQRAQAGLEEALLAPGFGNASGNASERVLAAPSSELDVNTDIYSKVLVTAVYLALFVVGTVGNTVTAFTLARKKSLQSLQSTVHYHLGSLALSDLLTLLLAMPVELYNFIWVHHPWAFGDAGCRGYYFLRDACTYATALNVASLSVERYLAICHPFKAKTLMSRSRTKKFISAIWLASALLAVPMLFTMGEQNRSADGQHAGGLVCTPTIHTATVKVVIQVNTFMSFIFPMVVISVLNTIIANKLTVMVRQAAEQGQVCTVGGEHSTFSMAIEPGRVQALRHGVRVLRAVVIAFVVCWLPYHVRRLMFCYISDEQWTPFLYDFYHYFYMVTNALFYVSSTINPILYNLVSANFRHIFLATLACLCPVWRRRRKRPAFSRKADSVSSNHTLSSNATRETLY
Experiment [5] addresses Neurotensin receptor type 1 (Mus musculus, UniProt O88319). Briefly: Inhibitory concentration required for the displacement of [3H]NT from neurotensin receptor in mouse; value ranges from 4-6 uM.
Experiment [6] concerns Rattus norvegicus. Briefly: Compound was tested for the inhibition of NT-induced hyperlocomotion at a dose of 80 mg/kg (ip); SI - Significant inhibition. The experiment is classed as functional, organism-based. More on the design: dose 80 mg/kg.
Experiment [7] deals with Rattus norvegicus. Briefly: Compound was tested for the inhibition of NT-induced hyperlocomotion at a dose of 120 mg/kg (ip); SI - Significant inhibition. Type of experiment: functional, organism-based. Also on record: dose 120 mg/kg.
Experiment [8] relates to Rattus norvegicus. Briefly: Compound was tested for the inhibition of NT-induced hyperlocomotion at a dose of 40 mg/kg (ip); NS - No significant inhibition. The experiment is classed as functional, organism-based. Also on record: dose 40 mg/kg.
A short description of experiment [9]: Compound was evaluated for its ability to displace [3H]NT from the neurotensin receptor of bovine brain.

Neurotensin receptor type 1 (Rattus norvegicus, UniProt P20789), sequence (P20789 whole entry): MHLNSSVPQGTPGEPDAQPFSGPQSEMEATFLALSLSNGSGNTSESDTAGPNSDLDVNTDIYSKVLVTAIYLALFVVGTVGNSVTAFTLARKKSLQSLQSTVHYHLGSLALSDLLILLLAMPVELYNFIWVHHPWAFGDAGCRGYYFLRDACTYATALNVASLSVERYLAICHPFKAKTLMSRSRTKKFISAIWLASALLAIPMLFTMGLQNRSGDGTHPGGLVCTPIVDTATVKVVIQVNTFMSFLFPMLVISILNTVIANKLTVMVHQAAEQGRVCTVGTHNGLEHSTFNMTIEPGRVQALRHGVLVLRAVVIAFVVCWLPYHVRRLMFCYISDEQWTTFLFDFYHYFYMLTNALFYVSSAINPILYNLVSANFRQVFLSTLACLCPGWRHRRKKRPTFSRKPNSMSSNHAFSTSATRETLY
Neurotensin receptor type 1 (Mus musculus, UniProt O88319), sequence (O88319 whole entry): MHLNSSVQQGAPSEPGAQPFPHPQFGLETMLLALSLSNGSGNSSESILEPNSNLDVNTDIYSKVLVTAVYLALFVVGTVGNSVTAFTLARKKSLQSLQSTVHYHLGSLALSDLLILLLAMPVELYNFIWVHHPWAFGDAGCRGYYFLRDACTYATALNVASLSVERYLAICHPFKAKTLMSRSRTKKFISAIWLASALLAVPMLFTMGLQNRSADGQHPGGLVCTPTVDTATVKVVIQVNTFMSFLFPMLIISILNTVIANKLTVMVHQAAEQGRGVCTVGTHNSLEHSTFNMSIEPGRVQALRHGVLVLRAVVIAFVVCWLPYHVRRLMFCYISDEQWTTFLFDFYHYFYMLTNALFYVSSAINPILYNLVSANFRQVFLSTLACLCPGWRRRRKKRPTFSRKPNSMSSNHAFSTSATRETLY

For the compound `Cc1ccc(S(=O)(=O)NCCNC2(c3ccccc3)OC(=O)c3ccccc32)cc1` (centres undefined), in the experiment with N1E-115 [1], the result was inactive. In the experiment on N1E-115 [2], this compound gave an inhibitory constant (Ki) of 4.4 µM. In addition, the half-inhibitory concentration (IC50) in experiment [3] was 49 µM; in experiment [5] it was 6 µM; in experiment [9] it was 5.5 µM. In addition, the inhibition result (in [4]; in the experiment with Rattus norvegicus [8]) was “inactive” in each case. Besides, the inhibition entry in the experiment with Rattus norvegicus [6] and in the experiment with Rattus norvegicus [7] was “Active” in each case.
